Data from article PMC3618674 (Brain research, 2012).
Read-outs that look alike come from different tables or passages of the source.

Columns and labels:
[1] = tested on: L-DOPA methylation; type: in vivo, rat; conditions: rats
[2] = tested on: L-DOPA methylation; test: Animal experiment III: L-DOPA methylation in dopamine-depleted; type: in vivo, rat
[3] = tested on: L-DOPA methylation; conditions: rats; for effect on plasma 3-OMD levels: 400 mg/kg i.p. 2 h before L-DOPA/carbidopa 20/5 mg/kg; for effect on striatal 3-OMD levels / effect on striatal dopamine levels: 400 mg/kg i.p., striatum at 6 h after L-DOPA/carbidopa 20/5 mg/kg
[4] = tested on: kainic acid-induced hippocampal neurodegeneration; test: Animal experiment IV: kainic acid-induced rat hippocampal injury; type: in vivo; conditions: rats
[5] = tested on: NF-κB; test: NF-κB-Luc reporter transcriptional activity in glutamate-treated HT22 cells; type: cell-based, mouse; conditions: HT22 cells transfected with NF-κB-Luc; 5 mM glutamate, 40 μM (+)-catechin, 8 h
[6] = tested on: HT22 mouse hippocampal neuronal cells; test: Glutamate-induced oxidative cell death, MTT cell viability; type: cell-based; conditions: 5 mM glutamate, 24 h, co-treatment
[7] = tested on: 6-hydroxydopamine-induced neuronal damage; test: 6-hydroxydopamine-induced neuronal damage model; conditions: data not shown
[8] = tested on: HT22 mouse hippocampal neuronal cells; test: Glutamate-induced intracellular ROS accumulation; type: cell-based; conditions: 5 mM glutamate
[9] = in vivo; conditions: rat, ip, 400 mg/kg
[10] = target: T1, human liver catechol-O-methyltransferase (COMT) (Homo sapiens, UniProt P21964); test: in vitro O-methylation of L-DOPA catalyzed by human liver cytosolic COMT; type: biochemical
T1 sequence (P21964 1-221 isoform P21964-2): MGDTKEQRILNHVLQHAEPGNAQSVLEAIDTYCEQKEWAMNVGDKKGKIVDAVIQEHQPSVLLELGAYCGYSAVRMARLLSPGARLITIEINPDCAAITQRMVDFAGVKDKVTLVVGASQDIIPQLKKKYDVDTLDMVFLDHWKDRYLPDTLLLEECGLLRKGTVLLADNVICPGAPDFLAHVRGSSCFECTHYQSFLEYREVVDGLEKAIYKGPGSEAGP

[11] = tested on: 6-hydroxydopamine-induced neurotoxicity; conditions: ref Leaver et al., 2009; cited from earlier work
[12] = reserpinized rats, co-treatment with L-DOPA/carbidopa 20/20 mg/kg
[13] = rats, reserpine 5 mg/kg i.p. 18-20 h before

Oc1cc(O)c2c(c1)O[C@H](c1ccc(O)c(O)c1)[C@@H](O)C2 [(+)-catechin]
time required to reach maximal L-DOPA plasma concentration ([1]; (+)-catechin 400 mg/kg 2 h before L-DOPA/carbidopa 20/20 mg/kg, vs control): modestly shifted to the right | effect on striatal 3-OMD levels ([1]; L-DOPA/carbidopa 20/20 mg/kg): markedly reduced | effect on striatal dopamine levels ([1]; L-DOPA/carbidopa 20/20 mg/kg): not significantly affected | effect on striatal 3-OMD levels [2, 12]: markedly reduced | effect on striatal dopamine levels [2, 12]: restored to levels comparable to those in normal rats | effect on plasma 3-OMD levels [3]: significantly reduced | effect on striatal 3-OMD levels [3]: significantly reduced | effect on striatal dopamine levels [3]: only slightly changed | kainic acid-induced increase in GFAP expression in astrocytes ([4]; (+)-catechin 400 mg/kg 30 min before i.c.v. kainic acid, 24 h, CA3): reduced | effect on kainic acid-induced seizure behavior ([4]; (+)-catechin 30 min before i.c.v. kainic acid): no appreciable behavioral differences | effect on transcriptional activity of NF-κB [5]: significantly attenuated | effect on glutamate-induced cell death (cell viability) [6]: abrogated cell death in a concentration-dependent manner | protective effect in 6-hydroxydopamine-induced neuronal damage model [7]: did not show any appreciable protective effect | effect on glutamate-induced accumulation of intracellular ROS [8]: reduced

Oc1cc(O)c2c(c1)O[C@H](c1ccc(O)c(O)c1)[C@H](O)C2 [(−)-epicatechin]
effect on plasma 3-OMD levels [3]: did not have a similar effect | effect on striatal 3-OMD levels [3]: no significant change | effect on striatal dopamine levels [3]: no significant change | concentration at 30 min [9]: 88.6 ± 39.2 µM | IC50 [10]: 10.7 ± 6.7 µM

O=C(O[C@@H]1Cc2c(O)cc(O)cc2O[C@@H]1c1cc(O)c(O)c(O)c1)c1cc(O)c(O)c(O)c1 [EGCG, (−)-epigallocatechin-3-gallate]
effect in 6-hydroxydopamine-induced neurotoxicity model [11]: ineffective

O=c1c(O)c(-c2ccc(O)c(O)c2)oc2cc(O)cc(O)c12 [quercetin]
effect on plasma 3-OMD levels [3]: did not have a similar effect | effect on striatal 3-OMD levels [3]: no significant change | effect on striatal dopamine levels [3]: no significant change | concentration at 30 min [9]: 12.6 ± 0.1 µM | IC50 [10]: 1.9 ± 0.4 µM

COC(=O)[C@H]1[C@H]2C[C@@H]3c4[nH]c5cc(OC)ccc5c4CCN3C[C@H]2C[C@@H](OC(=O)c2cc(OC)c(OC)c(OC)c2)[C@@H]1OC [reserpine, reference compound]
decrease of striatal dopamine levels compared to normal control animals [2, 13]: over 80% | striatal dopamine levels relative to non-reserpinized control rats [2, 13]: approximately 20%
